Experimental data taken from ChEMBL document CHEMBL3045487, “Bioactivity guided isolation of antiinflammatory, analgesic, and antipyretic constituents from the leaves of Pedilanthus tithymaloides (L.)” (Med Chem Res, 2013).

What was measured:
Mus musculus [1] = experiment: Toxicity in Swiss albino Mus musculus (mouse) assessed as diarrhea up to 100 mg/kg, po measured up to 24 hr relative to control; format: organism-based; design: dose 100 mg/kg, route oral; conditions: in vivo
Mus musculus [2] = experiment: Antinociceptive activity Swiss albino Mus musculus (mouse) assessed as inhibition of formalin-induced paw licking at 10 mg/kg, po administered 60 min prior to formalin-challenge measured from 15 to 30 min relative to control; format: functional
Mus musculus [3] = experiment: Anti-inflammatory activity in Swiss albino Mus musculus (mouse) assessed as inhibition of cotton pellet-induced granuloma formation at 10 mg/kg, po administered QD for 5 days measured at 1 hr post-last dose relative to control; format: functional
Mus musculus [4] = experiment: Toxicity in Swiss albino Mus musculus (mouse) assessed as lethargy up to 100 mg/kg, po measured up to 24 hr relative to control; format: organism-based; design: dose 100 mg/kg, route oral; conditions: in vivo
Mus musculus [5] = experiment: Toxicity in Swiss albino Mus musculus (mouse) assessed as weight loss up to 100 mg/kg, po measured up to 24 hr relative to control; format: organism-based; design: dose 100 mg/kg, route oral; conditions: in vivo
Mus musculus [6] = experiment: Toxicity in Swiss albino Mus musculus (mouse) assessed as abdominal constriction up to 100 mg/kg, po measured up to 24 hr relative to control; format: organism-based, Abdomen; design: dose 100 mg/kg, route oral; conditions: in vivo
Mus musculus [7] = experiment: Antinociceptive activity Swiss albino Mus musculus (mouse) assessed as inhibition of formalin-induced paw licking at 10 mg/kg, po administered 60 min prior to formalin-challenge measured up to 5 min relative to control; format: functional
Mus musculus [8] = experiment: Toxicity in Swiss albino Mus musculus (mouse) assessed as tremors up to 100 mg/kg, po measured up to 24 hr relative to control; format: organism-based; design: dose 100 mg/kg, route oral; conditions: in vivo
Mus musculus [9] = experiment: Toxicity in Swiss albino Mus musculus (mouse) assessed as mortality up to 100 mg/kg, po measured up to 72 hr; format: organism-based; design: dose 100 mg/kg, route oral; conditions: in vivo
Mus musculus [10] = experiment: Toxicity in Swiss albino Mus musculus (mouse) assessed as effect on mobility up to 100 mg/kg, po measured up to 24 hr relative to control; format: organism-based; design: dose 100 mg/kg, route oral; conditions: in vivo
Mus musculus [11] = experiment: Toxicity in Swiss albino Mus musculus (mouse) assessed as ataxia up to 100 mg/kg, po measured up to 24 hr relative to control; format: organism-based; design: dose 100 mg/kg, route oral; conditions: in vivo
Mus musculus [12] = experiment: Toxicity in Swiss albino Mus musculus (mouse) assessed as presence of secretions up to 100 mg/kg, po measured up to 24 hr relative to control; format: organism-based; design: dose 100 mg/kg, route oral; conditions: in vivo
Mus musculus [13] = experiment: Antinociceptive activity in Swiss albino Mus musculus (mouse) assessed as inhibition of acetic acid-induced writhing at 10 mg/kg, po administered 1 hr prior to acetic acid-challenge measured up to 20 min relative to control; format: functional
Mus musculus [14] = experiment: Toxicity in Swiss albino Mus musculus (mouse) assessed as convulsions up to 100 mg/kg, po measured up to 24 hr relative to control; format: organism-based; design: dose 100 mg/kg, route oral; conditions: in vivo
Mus musculus [15] = experiment: Anti-inflammatory activity in Swiss albino Mus musculus (mouse) assessed as inhibition of carrageenan-induced paw edema at 10 mg/kg, ip administered 30 min prior to carrageenan-challenge measured after 3 to 4 hr relative to control; format: functional; conditions: route intraperitoneal
Mus musculus [16] = experiment: Antinociceptive activity Swiss albino Mus musculus (mouse) assessed as inhibition of formalin-induced paw licking at 10 mg/kg, po administered 30 min prior to formalin-challenge measured from 15 to 30 min relative to control; format: functional
Mus musculus [17] = experiment: Antinociceptive activity Swiss albino Mus musculus (mouse) assessed as inhibition of formalin-induced paw licking at 10 mg/kg, po administered 30 min prior to formalin-challenge measured up to 5 min relative to control; format: functional
Mus musculus [18] = experiment: Anti-inflammatory activity in Swiss albino Mus musculus (mouse) assessed as inhibition of carrageenan-induced paw edema at 10 mg/kg, ip administered 30 min prior to carrageenan-challenge measured after 5 hr relative to control; format: functional; conditions: route intraperitoneal
Rattus norvegicus [19] = experiment: Antipyretic activity in Wistar albino Rattus norvegicus (rat) assessed as brewer's yeast-induced rectal tempeRattus norvegicus (rat)ure at 150 mg/kg, po measured at 23 hr (reference value: 39.1+/- 0.18 degC); format: functional
Rattus norvegicus [20] = experiment: Antipyretic activity in Wistar albino Rattus norvegicus (rat) assessed as brewer's yeast-induced rectal tempeRattus norvegicus (rat)ure at 150 mg/kg, po measured at 20 hr (reference value: 39.1+/- 0.18 degC); format: functional
Rattus norvegicus [21] = experiment: Antipyretic activity in Wistar albino Rattus norvegicus (rat) assessed as brewer's yeast-induced rectal tempeRattus norvegicus (rat)ure at 150 mg/kg, po measured at 21 hr (reference value: 39.1+/- 0.18 degC); format: functional
Rattus norvegicus [22] = experiment: Antipyretic activity in Wistar albino Rattus norvegicus (rat) assessed as brewer's yeast-induced rectal tempeRattus norvegicus (rat)ure at 150 mg/kg, po measured at 22 hr (reference value: 39.1+/- 0.18 degC); format: functional
Rattus norvegicus [23] = experiment: Antipyretic activity in Wistar albino Rattus norvegicus (rat) assessed as brewer's yeast-induced rectal tempeRattus norvegicus (rat)ure at 150 mg/kg, po measured at 19 hr (reference value: 39.3 +/- 0.11 degC); format: functional
Rattus norvegicus [24] = experiment: Antipyretic activity in Wistar albino Rattus norvegicus (rat) assessed as brewer's yeast-induced rectal tempeRattus norvegicus (rat)ure at 10 mg/kg, po measured at 23 hr (reference value: 39.1+/- 0.18 degC); format: functional
Rattus norvegicus [25] = experiment: Antipyretic activity in Wistar albino Rattus norvegicus (rat) assessed as brewer's yeast-induced rectal tempeRattus norvegicus (rat)ure at 10 mg/kg, po measured at 21 hr (reference value: 39.1+/- 0.18 degC); format: functional
Rattus norvegicus [26] = experiment: Antipyretic activity in Wistar albino Rattus norvegicus (rat) assessed as brewer's yeast-induced rectal tempeRattus norvegicus (rat)ure at 10 mg/kg, po measured at 19 hr (reference value: 39.3 +/- 0.11 degC); format: functional
Rattus norvegicus [27] = experiment: Antipyretic activity in Wistar albino Rattus norvegicus (rat) assessed as brewer's yeast-induced rectal temperature at 10 mg/kg, po measured at 22 hr (reference value: 39.1+/- 0.18 degC); format: functional
Rattus norvegicus [28] = experiment: Antipyretic activity in Wistar albino Rattus norvegicus (rat) assessed as brewer's yeast-induced rectal tempeRattus norvegicus (rat)ure at 10 mg/kg, po measured at 20 hr (reference value: 39.1+/- 0.18 degC); format: functional
Mus musculus [29] = species: Mus musculus; experiment: animal or person; conditions: Swiss albino, po, read-out: INH
Description: Antinociceptive activity Swiss albino Mus musculus (mouse) assessed as inhibition of formalin-induced paw licking at 5 mg/kg, po administered 30 min prior to formalin-challenge measured up to 5 min relative to control

Mus musculus [30] = species: Mus musculus; experiment: animal or person; conditions: Swiss albino, po, read-out: INH; remark: listed apart in the source
Description: Antinociceptive activity Swiss albino Mus musculus (mouse) assessed as inhibition of formalin-induced paw licking at 5 mg/kg, po administered 30 min prior to formalin-challenge measured from 15 to 30 min relative to control

| Structure (SMILES) | Activity (Mus musculus [1]) | inhibition in vivo at 10 mg/kg (Mus musculus [2]) [%] | inhibition in vivo at 10 mg/kg (Mus musculus [3]) [%] | Activity (Mus musculus [4]) | Activity (Mus musculus [5]) | Activity (Mus musculus [6]) | inhibition in vivo at 10 mg/kg (Mus musculus [7]) [%] | Activity (Mus musculus [8]) | Activity (Mus musculus [9]) | Activity (Mus musculus [10]) | Activity (Mus musculus [11]) | Activity (Mus musculus [12]) | inhibition in vivo at 10 mg/kg (Mus musculus [13]) [%] | Activity (Mus musculus [14]) | inhibition in vivo at 10 mg/kg (Mus musculus [15]) [%] | other results |
| --- | --- | --- | --- | --- | --- | --- | --- | --- | --- | --- | --- | --- | --- | --- | --- | --- |
| C[C@H]1[C@H](C)CC[C@]2(C(=O)O)CC[C@]3(C)C(=CC[C@@H]4[C@@]5(C)CC[C@H](O)C(C)(C)[C@@H]5CC[C@]43C)[C@H]12 [URSOLIC ACID] | Non-toxic | 61.4 | 38.5 | Non-toxic | Non-toxic | Non-toxic | 43.6 | Non-toxic | Non-toxic | Non-toxic | Non-toxic | Non-toxic | 50.3 | Non-toxic |  |  |
| C[C@H]1[C@H](O)CC[C@@H]2[C@]1(C)CC[C@H]1[C@@]2(C)CC[C@@]2(C)[C@H]3CC(C)(C)CC[C@]3(C)CC[C@]12C [FRIEDELANOL] | Non-toxic | 42.9 | 29.2 | Non-toxic | Non-toxic | Non-toxic | 35.7 | Non-toxic | Non-toxic | Non-toxic | Non-toxic | Non-toxic | 45.8 | Non-toxic | 36.1 |  |
| O=C(O)Cc1ccccc1Nc1c(Cl)cccc1Cl [DICLOFENAC SODIUM] |  |  |  |  |  |  |  |  |  |  |  |  | 90.9 |  |  | inhibition in vivo at 10 mg/kg (Mus musculus [16]): 97.6%; inhibition in vivo at 10 mg/kg (Mus musculus [17]): 20.1% |
| COc1ccc2c(c1)c(CC(=O)O)c(C)n2C(=O)c1ccc(Cl)cc1 [INDOMETHACIN] |  |  | 45.5 |  |  |  |  |  |  |  |  |  |  |  |  | inhibition in vivo at 10 mg/kg (Mus musculus [18]): 61.1% |
| CC(=O)O[C@H]1CC[C@@H]2[C@](C)(CC[C@H]3[C@@]2(C)CC[C@@]2(C)[C@H]4CC(C)(C)CC[C@]4(C)CC[C@]32C)[C@H]1C [EPIFRIEDELANYL ACETATE] | Non-toxic |  | 24.9 | Non-toxic | Non-toxic | Non-toxic |  | Non-toxic | Non-toxic | Non-toxic | Non-toxic | Non-toxic |  | Non-toxic | 30.6 |  |
| O=c1cc(-c2ccc(O)c(O)c2)oc2cc(O)cc(O)c12 [LUTEOLIN] | Non-toxic | 48.6 | 37 | Non-toxic | Non-toxic | Non-toxic | 40.3 | Non-toxic | Non-toxic | Non-toxic | Non-toxic | Non-toxic | 55.4 | Non-toxic |  | inhibition in vivo at 10 mg/kg (Mus musculus [18]): 50% |
| CC(=O)Nc1ccc(O)cc1 [ACETAMINOPHEN] |  |  |  |  |  |  |  |  |  |  |  |  |  |  |  | T (Rattus norvegicus [19]): 37.7 °C; T (Rattus norvegicus [20]): 38 °C; T (Rattus norvegicus [21]): 38 °C; T (Rattus norvegicus [22]): 37.9 °C; T (Rattus norvegicus [23]): 39.6 °C |
| CC[C@H](CC[C@@H](C)[C@H]1CC[C@H]2[C@@H]3CC=C4C[C@@H](O)CC[C@]4(C)[C@H]3CC[C@]12C)C(C)C [BETA-SITOSTEROL] | Non-toxic |  | 30.4 | Non-toxic | Non-toxic | Non-toxic |  | Non-toxic | Non-toxic | Non-toxic | Non-toxic | Non-toxic |  | Non-toxic |  | T (Rattus norvegicus [24]): 37.9 °C; T (Rattus norvegicus [25]): 38.1 °C; T (Rattus norvegicus [26]): 39.6 °C; T (Rattus norvegicus [27]): 38 °C; T (Rattus norvegicus [28]): 38.1 °C |
| CCCCCCCCCCCCC(O)COS(=O)(=O)[O-].[Na+] (stereo unspecified) | Non-toxic |  | 12.9 | Non-toxic | Non-toxic | Non-toxic |  | Non-toxic | Non-toxic | Non-toxic | Non-toxic | Non-toxic |  | Non-toxic | 33.3 |  |
| CN1CC[C@]23c4c5ccc(O)c4O[C@H]2[C@@H](O)C=C[C@H]3[C@H]1C5 [MORPHINE] |  |  |  |  |  |  |  |  |  |  |  |  |  |  |  | inhibition in vivo at 5 mg/kg (Mus musculus [29]): 68%; inhibition in vivo at 5 mg/kg (Mus musculus [30]): 100% |
